Assay results published in patent publication US10752900B2, “Oligonucleotides for modulating gene expression and uses thereof” (BIOGENERA S.P.A., priority 2012, dated 2020).

Assays:
MYCN gene [1] = experiment: QT-PCR, MYCN mRNA in Kelly cells; format: cell-based, human; details: for mRNA inhibition (%): Table 1, PNA 1 μM, RNA extracted after 24 hours; for mRNA inhibit. (%): Table 11, MYCN, 2.5 μM
Method: (§1) For the purpose of assessing the ability of the oligonucleotides of the present invention to modulate the expression of the target genes, their ability to reduce the quantity of messenger RNA was analyzed using the Real-Time PCR technique.
(§2) For this purpose, use was made of 24-well plates, which were seeded with 5.0×10^4 cells with 0.3 ml of OPTI-MEM (GIBCO BRL) medium, 4% FBS and 2 mM L-glutammine (experiments in triplicate) per well.
(§3) The cells were incubated for 24 hours at 37° C., in an atmosphere containing 5% CO2 to permit adherence to the base of the wells.
Each oligonucleotide analyzed, except for the PNA oligonucleotides, was incubated beforehand with 2 μl of Lipofectamine 2000 (Invitrogen), with 0.3 mL of serum-free OPTI-MEM (GIBCO BRL) medium.
(§4) For each well, the oligonucleotides were analyzed at the following final concentrations: • the antisense oligonucleotides siRNA and siRNA gapmer (i.e. the oligonucleotides containing one or more monomers of chemically modified nucleic acids at the 3′ or 5′ end, while in the central portion they have monomers of nucleic acids that have not been modified or have been modified at the level of the phosphodiester bond as a phosphorothioate bond) were used at 200 nM; • the antisense oligonucleotides containing phosphorothioate DNA monomers, the RNA antigene oligonucleotides (agRNA) and the oligonucleotides containing DNA monomers and LNA monomers were used at 10 μM; • the morpholino oligonucleotides were used at a concentration of 1 μM, and • the PNA oligonucleotides were administered at a concentration of 1 μM.
(§5) The cells were treated with the oligonucleotides, adding FBS up to 4% 6 hours after administration of the same. After 24 hours the total RNA was extracted from each well and purified using the RNeasy Mini Kit (QIAGEN).
(§6) Assays were performed on 8 cell lines obtained from 5 different human tumours which are correlated with MYCN expression, i.e.: • as a neuroblastoma model use was made of the cell lines Kelly, IMR-32 (where the MYCN gene is amplified and superexpressed) and SKNBE2c and LAN1 (where the MYCN gene is amplified and superexpressed and the p53 gene is mutated); • as a rabdomiosarcoma model use was made of the cell line RH30, where the MYCN gene is amplified and superexpressed; • as a Wilms' tumour model use was made of the cell line WiT49, where the MYCN gene is amplified and superexpressed; • as a retinoblastoma model use was made of the cell line Y79, where the MYCN gene is amplified and superexpressed; and • as a model of small cell lung cancer use was made of the cell line H69 where the MYCN gene is amplified and superexpressed.
(§7) As a control, use was made of the same cell lines as listed above treated with sterile water instead of oligonucleotides. Each RNA sample was quantified (in duplicate) using a NanoDrop ND-1000 spectrophotometer (NanoDrop Technologies). The first strand of cDNA was produced using the cDNA Synthesis Kit for RT-PCR (Roche). For the cDNA synthesis reaction a total of 1 μg of RNA was used. For the real-time PCR, 10 ng of cDNA in a final volume of 20 μl was used with SYBR Green Master Mix 2× (Applied Biosystems) (3 identical experiments were conducted in triplicate). Two housekeeping genes were used as positive controls: GAPDH and beta-actin (ACTB).
(§8) The conditions of the QT-PCR reaction were: 10 min at 95° C., 20 sec at 95° C., and 30 sec at 60° C., for 50 cycles.
(§9) As far as the PNA oligonucleotides are concerned, the results regarding their ability to inhibit the transcription of the MYCN gene and proliferation of Kelly cells are shown in Table 1.
(§10) The oligonucleotides were tested in vitro (at a concentration of 2.5 μM) to determine their ability to inhibit the transcription of the gene they are directed against by measuring the levels of the gene messenger in cellular models in which the gene of interest is overexpressed. The methods used are the ones described in example 1. […]

Kelly cells = experiment: Cellular proliferation assay (ATP-Lite), Kelly cells; format: cell-based, human
Method: (§11) For the purpose of assessing the gene modulation ability of the oligonucleotides of the present invention, the effect of their administration on cell viability was determined.
(§12) For this purpose 5×10^3 cells per well were seeded into 96-well cell culture plates (experiments conducted in triplicate) with 100 μl of OPTI-MEM (GIBCO BRL) medium containing 4% FBS and 2 mM of L-glutammine.
(§13) The PNA oligonucleotides were administered at different concentrations (1 μM-2.5 μM-5 μM-10 μM) in order to observe a dose-effect relationship.
As regards all the other oligonucleotides, the concentrations at which they administered are listed in the paragraph:
(§14) The viability of the treated cells was determined at 48, 72, 96 and 168 hours after treatment.
(§15) Cell viability was assessed by means of an ATP-Lite assay (Luminescence ATP Detection Assay System, PerkinElmer) and is reported as the ratio between the average signal of the treated wells compared to the average value of the wells of untreated control cells. The cells were processed following the instructions provided with the kit.
(§16) The assays were performed on the same cell lines used to determine the levels of the MYCN gene messenger and listed in the paragraph: Treatments with Oligonucleotides—QT-PCR.
as §9
(§17) The ability of the tested oligonucleotides to inhibit the messenger of the gene of interest was measured and the proliferative capacity of the cells following administration of the oligonucleotides was also assessed.

NIH-3T3 = experiment: Cellular proliferation, NIH-3T3 fibroblastoid-type cells; format: cell-based; details: Table 1; cells that do not express MYCN
Method: as §15
(§18) Moreover, the oligonucleotides having SEQ ID NO 1-23 were administered in lines of fibroblastoid-type cells (NIH-3T3 and Phoenix) and the results are shown in Table 1 (last two columns). […]

Phoenix = experiment: Cellular proliferation, Phoenix fibroblastoid-type cells; format: cell-based; details: Table 1; cells that do not express MYCN
Method: as §15, §18

MYCN gene [2] = experiment: QT-PCR, MYCN mRNA in H69 cells; format: cell-based, human; details: Table 11, MYCN, 2.5 μM
Method: as §1, §2, §3, §4, §5, §6, §7, §8
(§19) The PNAs having SEQ ID NO: 1-12 were also tested on different cell lines which overexpress MYCN (Kelly, SKNBE2c, RH30, WiT49, WERI-Rb1 1 and H69). The results are shown in Table 6 and confirm the selectivity and specificity of the inhibition effect of the PNAs on the product of protein translation of the MYCN gene.
as §10

H69 = experiment: Cellular proliferation assay (ATP-Lite), H69 cells; format: cell-based, human; details: Table 11, MYCN-directed PNA, 2.5 μM
Method: as §11, §12, §13, §14, §15, §16, §19, §17

[3] = Table 1, treated vs untreated control cells
[4] = Table 11, MYCN-directed PNA, 2.5 μM

SEQ ID NO: 18: PNA GTGACAGTCATCTGTC without groups of consecutive guanines, negative control (PNA backbone, chemistry not fully specified) [reference compound]
mRNA inhibition (%) (MYCN gene [1]): 10% | Cell Prolif. (%) (Kelly cells; [3]): 98% | NIH-3T3 prolif. (%) (NIH-3T3): 100% | Phoenix prolif. (%) (Phoenix): 100%

SEQ ID NO: 68: PNA TGGAGGTCGGCGCCGG directed against MYCN (all peptide nucleic acid (PNA); antigene PNA)
mRNA inhibit. (%) (MYCN gene [1]): 74% | mRNA inhibit. (%) (MYCN gene [2]): 62% | Cell Prolif. (%) (Kelly cells; [4]): 35% | Cell Prolif. (%) (H69): 49%

SEQ ID NO: 13: PNA antigene oligonucleotide ACGCTCAGGGACCACG directed against MYCN (all peptide nucleic acid (PNA))
mRNA inhibition (%) (MYCN gene [1]): 48% | Cell Prolif. (%) (Kelly cells; [3]): 66% | NIH-3T3 prolif. (%) (NIH-3T3): 100% | Phoenix prolif. (%) (Phoenix): 100%

SEQ ID NO: 22: PNA GCGCCTCCCCTGATTT without groups of consecutive guanines, negative control (PNA backbone, chemistry not fully specified) [reference compound]
mRNA inhibition (%) (MYCN gene [1]): 2% | Cell Prolif. (%) (Kelly cells; [3]): 100% | NIH-3T3 prolif. (%) (NIH-3T3): 100% | Phoenix prolif. (%) (Phoenix): 100%

SEQ ID NO: 21: PNA CTCGAGTTTGACTCGC without groups of consecutive guanines, negative control (PNA backbone, chemistry not fully specified) [reference compound]
mRNA inhibition (%) (MYCN gene [1]): 1% | Cell Prolif. (%) (Kelly cells; [3]): 100% | NIH-3T3 prolif. (%) (NIH-3T3): 100% | Phoenix prolif. (%) (Phoenix): 100%

SEQ ID NO: 14: PNA antigene oligonucleotide CCCGGACGAAGATGAC directed against MYCN (all peptide nucleic acid (PNA))
mRNA inhibition (%) (MYCN gene [1]): 40% | Cell Prolif. (%) (Kelly cells; [3]): 70% | NIH-3T3 prolif. (%) (NIH-3T3): 100% | Phoenix prolif. (%) (Phoenix): 100%

SEQ ID NO: 67: PNA GCGGGTCGCGGGCACG directed against MYCN (all peptide nucleic acid (PNA); antigene PNA)
mRNA inhibit. (%) (MYCN gene [1]): 60% | mRNA inhibit. (%) (MYCN gene [2]): 42% | Cell Prolif. (%) (Kelly cells; [4]): 56% | Cell Prolif. (%) (H69): 71%

SEQ ID NO: 20: PNA CGTCGATTTCTTCCTC without groups of consecutive guanines, negative control (PNA backbone, chemistry not fully specified) [reference compound]
mRNA inhibition (%) (MYCN gene [1]): 5% | Cell Prolif. (%) (Kelly cells; [3]): 100% | NIH-3T3 prolif. (%) (NIH-3T3): 100% | Phoenix prolif. (%) (Phoenix): 100%

SEQ ID NO: 66: PNA TCGGGAGCAGTGGGCA directed against MYCN (all peptide nucleic acid (PNA); antigene PNA, further chemistry not fully specified)
mRNA inhibit. (%) (MYCN gene [1]): 57% | mRNA inhibit. (%) (MYCN gene [2]): 41% | Cell Prolif. (%) (Kelly cells; [4]): 60% | Cell Prolif. (%) (H69): 73%

SEQ ID NO: 19: PNA GACAGTCATCTGTCTG without groups of consecutive guanines, negative control (PNA backbone, chemistry not fully specified) [reference compound]
mRNA inhibition (%) (MYCN gene [1]): 5% | Cell Prolif. (%) (Kelly cells; [3]): 100% | NIH-3T3 prolif. (%) (NIH-3T3): 100% | Phoenix prolif. (%) (Phoenix): 100%

SEQ ID NO: 23: PNA ATATCCCCCGAGCTTC without groups of consecutive guanines, negative control (PNA backbone, chemistry not fully specified) [reference compound]
mRNA inhibition (%) (MYCN gene [1]): 2% | Cell Prolif. (%) (Kelly cells; [3]): 100% | NIH-3T3 prolif. (%) (NIH-3T3): 100% | Phoenix prolif. (%) (Phoenix): 100%

SEQ ID NO: 16: PNA CCTGTCGTAGACAGCT without groups of consecutive guanines, negative control (PNA backbone, chemistry not fully specified) [reference compound]
mRNA inhibition (%) (MYCN gene [1]): 14% | Cell Prolif. (%) (Kelly cells; [3]): 90% | NIH-3T3 prolif. (%) (NIH-3T3): 100% | Phoenix prolif. (%) (Phoenix): 100%

SEQ ID NO: 69: PNA TCGGCGGGAGGTAAGG directed against MYCN (all peptide nucleic acid (PNA); antigene PNA)
mRNA inhibit. (%) (MYCN gene [1]): 76% | mRNA inhibit. (%) (MYCN gene [2]): 67% | Cell Prolif. (%) (Kelly cells; [4]): 30% | Cell Prolif. (%) (H69): 45%

SEQ ID NO: 17: PNA TGTGACAGTCATCTGT without groups of consecutive guanines, negative control (PNA backbone, chemistry not fully specified) [reference compound]
mRNA inhibition (%) (MYCN gene [1]): 10% | Cell Prolif. (%) (Kelly cells; [3]): 98% | NIH-3T3 prolif. (%) (NIH-3T3): 100% | Phoenix prolif. (%) (Phoenix): 100%

SEQ ID NO: 15: PNA antigene oligonucleotide ACTGTGTTGGAGCCGA directed against MYCN (all peptide nucleic acid (PNA))
mRNA inhibition (%) (MYCN gene [1]): 37% | Cell Prolif. (%) (Kelly cells; [3]): 77% | NIH-3T3 prolif. (%) (NIH-3T3): 100% | Phoenix prolif. (%) (Phoenix): 100%
